Bridge positions count the residues as written; N and C are the ends. Square brackets hold non-standard residues; d marks the D form. Peptide text beside a SMILES is read from it. Sar = CNCC(=O)O
What was measured:
Type in all cases: functional
Oryctolagus cuniculus [1] = test: Compound was tested for dose-dependent hypertensive response in infused anesthetized rabbits at 3 ug/min
Oryctolagus cuniculus [2] = test: Compound was tested for dose-dependent hypertensive response in infused anesthetized rabbits at 1 ug/min
Oryctolagus cuniculus [3] = test: Compound was tested for dose-dependent hypertensive response in infused anesthetized rabbits at 2 ug/min
Oryctolagus cuniculus [4] = organism: Oryctolagus cuniculus; test: Compound was tested for dose-related reduction of the mean blood pressure on boluses of different dose of 0.05 mg via ear vein; value ranges from -20 to -40
Oryctolagus cuniculus [5] = organism: Oryctolagus cuniculus; test: Compound was tested for dose-related reduction of the mean blood pressure on boluses of different dose of 0.1 mg via ear vein
Oryctolagus cuniculus [6] = organism: Oryctolagus cuniculus; test: Compound was tested for dose-related reduction of the mean blood pressure on boluses of different dose of 0.2 mg via ear vein; value ranges from -40 to -60
Oryctolagus cuniculus [7] = test: Compound was tested for dose-dependent hypertensive response in infused anesthetized rabbits at 10 ug/min
Oryctolagus cuniculus [8] = test: Compound was tested for dose-dependent hypertensive response in infused anesthetized rabbits at 30 ug/min
Oryctolagus cuniculus [9] = test: Compound was tested for dose-dependent hypertensive response in infused anesthetized rabbits at 20 ug/min
Oryctolagus cuniculus [10] = organism: Oryctolagus cuniculus; test: Compound was tested for dose-related reduction of the mean blood pressure on boluses of different dose of 300 mg via ear vein
Oryctolagus cuniculus [11] = organism: Oryctolagus cuniculus; test: Compound was tested for dose-related reduction of the mean blood pressure on boluses of different dose of 150 mg via ear vein
Oryctolagus cuniculus [12] = organism: Oryctolagus cuniculus; test: Compound was tested for dose-related reduction of the mean blood pressure on boluses of different dose of 75 mg via ear vein
Oryctolagus cuniculus [13] = organism: Oryctolagus cuniculus; test: Compound was tested for dose-related reduction of the mean blood pressure on boluses of different dose of 1 mg via ear vein; value ranges from 0 to -20
Oryctolagus cuniculus [14] = organism: Oryctolagus cuniculus; test: Compound was tested for dose-related reduction of the mean blood pressure on boluses of different dose of 2 mg via ear vein; value ranges from 0 to -20

## CC[C@H](C)[C@H](NC(=O)[C@H](Cc1ccc(O)cc1)NC(=O)[C@@H](NC(=O)[C@H](CCCNC(=N)N)NC(=O)[C@@H](N)CC(=O)O)C(C)C)C(=O)N[C@@H](Cc1cnc[nH]1)C(=O)N1CCC[C@H]1C(=O)N[C@@H](Cc1ccccc1)C(=O)O [ANGIOTENSIN II]
Oryctolagus cuniculus [1]
  Response: 40%
Oryctolagus cuniculus [2]
  Response: 20%
Oryctolagus cuniculus [3]
  Response: 20%

## CCCCc1nc(Cl)c(CO)n1Cc1ccc(-c2ccccc2-c2nnn[nH]2)cc1 [LOSARTAN]
Oryctolagus cuniculus [4]
  Delta mean blood pressure: -20
Oryctolagus cuniculus [5]
  Delta mean blood pressure: -40
Oryctolagus cuniculus [6]
  Delta mean blood pressure: -40

## CNCC(=O)N[C@@H](CCCN=C(N)N)C(=O)N[C@H]1CCC(=O)NCCCC[C@@H](C(=O)N[C@@H](Cc2c[nH]cn2)C(=O)N2CCC[C@H]2C(=O)N[C@@H](Cc2ccccc2)C(=O)O)NC(=O)[C@H](Cc2ccc(O)cc2)NC1=O (H-[Sar]REYKHPF-OH; lactam 3-5)
Oryctolagus cuniculus [7]
  Response: 0%
Oryctolagus cuniculus [8]
  Response: 60%
Oryctolagus cuniculus [9]
  Response: 40%

## CC[C@H](C)[C@H](NC(=O)[C@@H]1CCCN1C(=O)[C@H](Cc1c[nH]cn1)NC(=O)[C@@H]1CCCCNC(=O)CC[C@H](NC(=O)[C@H](CCCN=C(N)N)NC(=O)CNC)C(=O)N[C@@H](Cc2ccc(O)cc2)C(=O)N1)C(=O)O (H-[Sar]REYKHPI-OH; lactam 3-5)
Oryctolagus cuniculus [10]
  Delta mean blood pressure: -20
Oryctolagus cuniculus [11]
  Delta mean blood pressure: 0
Oryctolagus cuniculus [12]
  Delta mean blood pressure: 0

## OCc1nc2ccccc2n1Cc1ccc(-c2ccccc2C2=NC(Cc3ccccc3)N=N2)cc1 (centres undefined)
Oryctolagus cuniculus [13]
  Delta mean blood pressure: 0
Oryctolagus cuniculus [14]
  Delta mean blood pressure: 0
